Laboratory results as given in patent publication US9796700B2 (Celgene CAR LLC, priority 2013, dated 2017).
Read-outs that look alike come from different tables or passages of the source.

Columns and labels:
[1] = biological target: Erk1 (Homo sapiens (Human), UniProt P27361); test: Protein Mass Modification Assay (intact protein MALDI); type: binding
How it was run: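 Human Erk1 was incubated 60 min at room temperature with a 10-fold molar excess of compound, then analysed as intact protein by MALDI with sinapinic acid matrix. The centroid mass shift versus untreated protein was divided by compound molecular weight to give percent modified protein.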

[2] = biological target: MEK1 activated ERK1 (Homo sapiens (Human), UniProt P27361); test: Omnia continuous-read kinase assay for potency against MEK1 activated ERK1; type: biochemical
Text: Omnia Assay Protocol for Potency Assessment Against MEK1 Activated ERK1:
The protocol below describes continuous-read kinase assays to measure potency of compounds against activated ERK1 enzyme. The mechanics of the assay platform are best described by the vendor (Invitrogen, Carlsbad, Calif.) on their website at the following URL: invitrogen.com/site/us/en/home.html.
Briefly, a 1.25× stock of ERK1 enzyme (14-439-K) from Millipore (Billerica, Mass.), 5×ATP (AS001A) and ST17-Sox conjugated peptide substrate (KNZ1171C) were prepared in 1× kinase reaction buffer consisting of 20 mM Tris, pH 7.5, 5 mM MgCl2, 1 mM EGTA, 5 mM β-glycerophosphate, 5% glycerol (10× stock, KB002A) and 0.2 mM DTT. 10 μL of ATP/ST17-sox peptide substrate mix was combined with 0.5 μL volume of 100% DMSO and serially diluted compounds were prepared in 100% DMSO in a Corning (#3574) 384-well, white, non-binding surface microtiter plate (Corning, N.Y.). Kinase reactions were started with the addition of 40 μL of ERK1 solution and monitored every 71 seconds for 30-240 minutes at λex360/λem485 in a Synergy plate reader from BioTek (Winooski, Vt.). At the conclusion of each assay, progress curves from each well were examined for linear reaction kinetics and fit statistics (R^2, 95% confidence interval, absolute sum of squares). Initial velocity (0 minutes to ˜30+ minutes) from each reaction was determined from the slope of a plot of relative fluorescence units vs time (minutes or seconds) and then plotted against inhibitor concentration to estimate ^AppIC50 from log [Inhibitor] vs Response, Variable Slope model in GraphPad Prism from GraphPad Software (San Diego, Calif.).
[Reagent] used in optimized protocol:
[ERK1]=4 nM, [ATP]=50 μM, [ST17-Sox]=10 μM (ATP ^appKM 48 μM)
The results of this assay show the degree of inhibition of ERK activity, which is a direct measurement of inhibition of ERK activity. Results from this assay are reported in Table A under the column “ERK1 Omnia WT ATP KM IC50 (nM).”

[3] = MEK1 activated ERK1, WT, ATP at KM

Chain of MEK1 activated ERK1 (P27361 whole entry): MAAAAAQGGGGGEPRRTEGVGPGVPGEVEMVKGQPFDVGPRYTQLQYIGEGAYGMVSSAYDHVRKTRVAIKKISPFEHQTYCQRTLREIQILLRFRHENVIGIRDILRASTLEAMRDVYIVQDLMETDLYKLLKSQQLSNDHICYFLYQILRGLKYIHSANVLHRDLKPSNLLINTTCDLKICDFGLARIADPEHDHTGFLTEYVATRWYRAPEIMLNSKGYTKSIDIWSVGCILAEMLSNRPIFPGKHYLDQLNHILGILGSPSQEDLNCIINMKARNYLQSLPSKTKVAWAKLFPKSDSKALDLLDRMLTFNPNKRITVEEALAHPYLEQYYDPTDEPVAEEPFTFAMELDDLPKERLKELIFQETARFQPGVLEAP
Chain of Erk1 (P27361 whole entry, looked up): as the sequence (P27361 whole entry) above

SMILES | ERK1 Mass Mod (%) [1] | IC50 [2, 3] | IC50 ([2]; read-out: ERK1 Omnia WT ATP KM IC50)
CCOCCC(=O)Nc1ccccc1Nc1nc(Nc2cc(C(N)=O)ccc2C)ncc1Cl [Compound I-130] | G (proived a mass modification ≦30%) | > 1000 nM | 
C=CC(=O)Nc1ccccc1Nc1nc(N[C@H]2CCCN(C(=O)OC(C)(C)C)C2)ncc1Cl [Compound I-132, (S)-tert-butyl 3-((4-((2-acrylamidophenyl)amino)-5-chloropyrimidin-2-yl)amino) piperidine-1-carboxylate] | E (provided a mass modification of ≧70%) | > 1000 nM | 
C=CC(=O)Nc1ccccc1Nc1nc(N[C@H]2CCCN(C(=O)C3CC3)C2)ncc1Cl [Compound I-136, (S)—N-(2-((5-chloro-2-((1-(cyclopropanecarbonyl)piperidin-3-yl)amino)pyrimidin-4-yl)amino)phenyl)acrylamide] | E (provided a mass modification of ≧70%) | < 100 nM | 
C=CC(=O)Nc1ccccc1Nc1nc(N[C@H]2CCCN(C(=O)C(C)C)C2)ncc1Cl [Compound I-137, (S)—N-(2-((5-chloro-2-((1-isobutyrylpiperidin-3-yl)amino)pyrimidin-4-yl)amino)phenyl)acrylamide] | E (provided a mass modification of ≧70%) | < 100 nM | 
C=CC(=O)Nc1cc(C)ccc1Nc1nc(N[C@H]2CCCN(C(C)=O)C2)ncc1Cl [Compound I-139, (S)—N-(2-((2-((1-acetylpiperidin-3-yl)amino)-5-chloropyrimidin-4-yl)amino)-5-methylphenyl)acrylamide] | E (key: E: provided a mass modification of ≧70%; F: provided a mass modification of 31-69%; G: proived a mass modification ≦30%) |  | < 100 nM
C=CC(=O)Nc1ccccc1Nc1nc(Nc2ccc(NC(C)=O)cc2C(F)(F)F)ncc1Cl [Compound I-150, N-(2-((2-((4-acetamido-2-(trifluoromethyl)phenyl)amino)-5-chloropyrimidin-4-yl)amino)phenyl)acrylamide] | E (provided a mass modification of ≧70%) | > 1000 nM | 
C=CC(=O)Nc1cc(OC)ccc1Nc1nc(Nc2ccc(N3CCN(C(=O)OC(C)(C)C)CC3)cc2OC)ncc1Cl [Compound I-151, tert-butyl 4-(4-((4-((2-acrylamido-4-methoxyphenyl)amino)-5-chloropyrimidin-2-yl)amino)-3-methoxyphenyl)piperazine-1-carboxylate] | F (provided a mass modification of 31-69%) | > 1000 nM | 
C=CC(=O)Nc1ccccc1Nc1nc(Nc2ccc(N3CCN(C(C)=O)CC3)cc2OC)ncc1F [Compound I-153, N-(2-((2-((4-(4-acetylpiperazin-1-yl)-2-methoxyphenyl)amino)-5-fluoropyrimidin-4-yl)amino)phenyl)acrylamide] | F (provided a mass modification of 31-69%) | > 1000 nM | 
C=CC(=O)Nc1ccccc1Nc1ccnc(Nc2ccc(N3CCN(C(C)=O)CC3)cc2OC)n1 [Compound I-154, N-(2-((2-((4-(4-acetylpiperazin-1-yl)-2-methoxyphenyl)amino)pyrimidin-4-yl)amino)phenyl)acrylamide] | G (proived a mass modification ≦30%) | > 1000 nM | 
C=CC(=O)Nc1cc(OC)ccc1Nc1nc(Nc2ccc(-n3ccnc3)cc2C#N)ncc1Cl [Compound I-157, N-(2-((5-chloro-2-((2-cyano-4-(1H-imidazol-1-yl)phenyl)amino)pyrimidin-4-yl)amino)-5-methoxyphenyl)acrylamide] | F (provided a mass modification of 31-69%) | > 1000 nM | 
C=CC(=O)Nc1cc(OC)ccc1Nc1nc(Nc2ccc(N3CCC[C@H]3CO)cc2C(F)(F)F)ncc1Cl [Compound I-158, (S)—N-(2-((5-chloro-2-((4-(2-(hydroxymethyl)pyrrolidin-1-yl)-2-(trifluoromethyl)phenyl)amino)pyrimidin-4-yl)amino)-5-methoxyphenyl)acrylamide] | F (provided a mass modification of 31-69%) | > 1000 nM | 
C=CC(=O)Nc1cc(OC)ccc1Nc1nc(Nc2ccc(N3CCC[C@H]3CO)cc2OC)ncc1Cl [Compound I-159, (S)—N-(2-((5-chloro-2-((4-(2-(hydroxymethyl)pyrrolidin-1-yl)-2-methoxyphenyl)amino)pyrimidin-4-yl)amino)-5-methoxyphenyl)acrylamide] | F (provided a mass modification of 31-69%) | > 1000 nM | 
C=CC(=O)Nc1ccccc1Nc1nc(Nc2ccc(N3CCC[C@H]3CO)cc2C#N)ncc1Cl [Compound I-160, (S)—N-(2-((5-chloro-2-((2-cyano-4-(2-(hydroxymethyl)pyrrolidin-1-yl)phenyl)amino)pyrimidin-4-yl)amino)phenyl)acrylamide] | G (proived a mass modification ≦30%) | > 1000 nM | 
C=CC(=O)Nc1cc(OC)ccc1Nc1nc(Nc2ccc(N3CCNCC3)cc2C#N)ncc1Cl [Compound I-161, N-(2-((5-chloro-2-((2-cyano-4-(piperazin-1-yl)phenyl)amino)pyrimidin-4-yl)amino)-5-methoxyphenyl)acrylamide] | G (proived a mass modification ≦30%) | > 1000 nM | 

Continued, in another order:

ERK1 Mass Mod (%) [1] | IC50 [2, 3] | SMILES | IC50 ([2]; read-out: ERK1 Omnia WT ATP KM IC50)
E (provided a mass modification of ≧70%) | < 100 nM | C=C(C)S(=O)(=O)Nc1cc(C)ccc1Nc1nc(Nc2cc(C(C)=O)ccc2C)ncc1C(F)(F)F [Compound I-98, N-(2-((2-((5-acetyl-2-methylphenyl)amino)-5-(trifluoromethyl)pyrimidin-4-yl)amino)-5-methylphenyl)prop-1-ene-2-sulfonamide] | 
E (provided a mass modification of ≧70%) | < 100 nM | C=CC(=O)Nc1ccccc1Nc1nc(N[C@H]2CCC[C@@H](C(N)=O)C2)ncc1C(F)(F)F [Compound I-118, (1R,3S)-3-((4-((2-acrylamidophenyl)amino)-5-(trifluoromethyl)pyrimidin-2-yl)amino)cyclohexanecarboxamide] | 
E (provided a mass modification of ≧70%) | < 100 nM | C=CC(=O)Nc1ccccc1Nc1nc(N[C@@H]2CCC[C@H](C(N)=O)C2)ncc1Cl [Compound I-119, (1S,3R)-3-((4-((2-acrylamidophenyl)amino)-5-chloropyrimidin-2-yl)amino)cyclohexanecarboxamide] | 
E (provided a mass modification of ≧70%) | < 100 nM | C=CC(=O)Nc1ccccc1Nc1nc(N[C@H]2CCC[C@@H](C(N)=O)C2)ncc1Cl [Compound I-120, (1R,3S)-3-((4-((2-acrylamidophenyl)amino)-5-chloropyrimidin-2-yl)amino)cyclohexanecarboxamide] | 
E (provided a mass modification of ≧70%) | < 100 nM | C=CC(=O)Nc1ccccc1Nc1nc(N[C@H]2CCCN(C(=O)CO)C2)ncc1Cl [Compound I-123, (S)—N-(2-((5-chloro-2-((1-(2-hydroxyacetyl)piperidin-3-yl)amino)pyrimidin-4-yl)amino)phenyl)acrylamide] | 
E (provided a mass modification of ≧70%) | < 100 nM | C=CC(=O)Nc1ccccc1Nc1nc(NC2CCN(C=O)CC2)ncc1Cl [Compound I-124, N-(2-((5-chloro-2-((1-formylpiperidin-4-yl)amino)pyrimidin-4-yl)amino)phenyl) acrylamide] | 
E (provided a mass modification of ≧70%) | < 100 nM | C=CC(=O)Nc1ccccc1Nc1nc(N[C@H]2CCCN(S(C)(=O)=O)C2)ncc1Cl [Compound I-125, (S)—N-(2-((5-chloro-2-((1-(methylsulfonyl)piperidin-3-yl)amino)pyrimidin-4-yl)amino)phenyl)acrylamide] | 
E (provided a mass modification of ≧70%) | < 100 nM | C=CC(=O)Nc1ccccc1Nc1nc(N[C@H]2CCCN(C(=O)CC)C2)ncc1Cl [Compound I-131, (S)—N-(2-((5-chloro-2-((1-propionylpiperidin-3-yl)amino)pyrimidin-4-yl)amino)phenyl)acrylamide] | 
E (provided a mass modification of ≧70%) | < 100 nM | C=CC(=O)Nc1ccccc1Nc1nc(N[C@H]2CCCN(C(=O)[C@@H](C)O)C2)ncc1Cl [Compound I-134, N-(2-((5-chloro-2-(((S)-1-((R)-2-hydroxypropanoyl)piperidin-3-yl)amino)pyrimidin-4-yl)amino)phenyl)acrylamide] | 
